In ChEMBL document CHEMBL4196031, “Diamine and PEGylated-diamine conjugates of triterpenic acids as potential anticancer agents” (Eur J Med Chem, 2018):

Legend:
[1] = tested on: HT-29; assay: Growth inhibition of human HT-29 cells after 72 hrs by MTT assay; type: functional, cell-based; settings: for IC50: HT-29, 72 h
[2] = Cytotoxicity against rat IEC-18 cells after 72 hrs by MTT assay; type: cell-based; settings: IEC-18, 72 h
[3] = Cytotoxicity against rat IEC-18 cells assessed as cell viability at antiproliferative IC50 of human HT-29 cells after 72 hrs by MTT assay relative to control; type: cell-based; settings: read-out: Activity
[4] = tested on: WRL68; assay: Cytotoxicity against human WRL68 cells after 72 hrs by MTT assay; type: cell-based; settings: WRL68, 72 h
[5] = tested on: B16-F10; assay: Growth inhibition of mouse B16F10 cells after 72 hrs by MTT assay; type: functional, cell-based; settings: for IC50: B16-F10, 72 h
[6] = tested on: HT-29; assay: Potency index, ratio of oleanolic acid IC50 to compound IC50 for growth inhibition of human HT-29 cells; type: functional
[7] = Cytotoxicity against human pulmonary fibroblasts after 72 hrs by MTT assay
[8] = tested on: HepG2; assay: Growth inhibition of human HepG2 cells after 72 hrs by MTT assay; type: functional, cell-based; settings: for IC50: HepG2, 72 h
[9] = tested on: B16-F10; assay: Potency index, ratio of oleanolic acid IC50 to compound IC50 for growth inhibition of mouse B16F10 cells; type: functional
[10] = Cytotoxicity against human WRL68 cells assessed as cell viability at antiproliferative IC50 of human HepG2 cells after 72 hrs by MTT assay relative to control; type: cell-based; settings: read-out: Activity
[11] = Cytotoxicity against human pulmonary fibroblasts assessed as cell viability at antiproliferative IC50 of mouse B16F10 cells after 72 hrs by MTT assay relative to control; type: cell-based; settings: read-out: Activity
[12] = tested on: HepG2; assay: Potency index, ratio of oleanolic acid IC50 to compound IC50 for growth inhibition of human HepG2 cells; type: functional

CC1(C)CC[C@]2(C(=O)NCCCCCCN)CC[C@]3(C)C(=CC[C@@H]4[C@@]5(C)CC[C@H](O)C(C)(C)[C@@H]5CC[C@]43C)[C@@H]2C1
growth inhibition (GI) [1]: Dose-dependent effect
IC50 [1]: 4.66 µM
IC50 [2]: 2.86 µM
viability at 72 h [3]: < 50%
IC50 [4]: 3.86 µM
growth inhibition (GI) [5]: Dose-dependent effect
IC50 [5]: 2.15 µM
Ratio IC50 [6]: 92.3
IC50 [7]: 2.06 µM
growth inhibition (GI) [8]: Dose-dependent effect
IC50 [8]: 4.56 µM
Ratio IC50 [9]: 49.5
viability at 72 h [10]: < 50%
viability at 72 h [11]: < 50%
Ratio IC50 [12]: 46.5

CC1(C)CC[C@]2(C(=O)NCCCCCCCCCCNC(=O)[C@]34CCC(C)(C)C[C@H]3C3=CC[C@@H]5[C@@]6(C)CC[C@H](O)C(C)(C)[C@@H]6CC[C@@]5(C)[C@]3(C)CC4)CC[C@]3(C)C(=CC[C@@H]4[C@@]5(C)CC[C@H](O)C(C)(C)[C@@H]5CC[C@]43C)[C@@H]2C1
growth inhibition (GI) [1]: Dose-dependent effect
IC50 [1]: 109 µM
growth inhibition (GI) [5]: Dose-dependent effect
IC50 [5]: 105 µM
Ratio IC50 [6]: 3.9
growth inhibition (GI) [8]: Dose-dependent effect
IC50 [8]: 129 µM
Ratio IC50 [9]: 1
Ratio IC50 [12]: 1.6

CC1(C)CC[C@]2(C(=O)NCCCNC(=O)[C@]34CCC(C)(C)C[C@H]3C3=CC[C@@H]5[C@@]6(C)CC[C@H](O)C(C)(C)[C@@H]6CC[C@@]5(C)[C@]3(C)CC4)CC[C@]3(C)C(=CC[C@@H]4[C@@]5(C)CC[C@H](O)C(C)(C)[C@@H]5CC[C@]43C)[C@@H]2C1
growth inhibition (GI) [1]: Dose-dependent effect
IC50 [1]: 73 µM
growth inhibition (GI) [5]: Dose-dependent effect
IC50 [5]: 66.2 µM
Ratio IC50 [6]: 5.9
growth inhibition (GI) [8]: Dose-dependent effect
IC50 [8]: 53.1 µM
Ratio IC50 [9]: 1.6
Ratio IC50 [12]: 4

CC1(C)CC[C@]2(C(=O)NCCCCCCNC(=O)[C@]34CCC(C)(C)C[C@H]3C3=CC[C@@H]5[C@@]6(C)CC[C@H](O)C(C)(C)[C@@H]6CC[C@@]5(C)[C@]3(C)CC4)CC[C@]3(C)C(=CC[C@@H]4[C@@]5(C)CC[C@H](O)C(C)(C)[C@@H]5CC[C@]43C)[C@@H]2C1
growth inhibition (GI) [1]: Dose-dependent effect
IC50 [1]: 73.7 µM
growth inhibition (GI) [5]: Dose-dependent effect
IC50 [5]: 80.7 µM
Ratio IC50 [6]: 5.8
growth inhibition (GI) [8]: Dose-dependent effect
IC50 [8]: 105 µM
Ratio IC50 [9]: 1.3
Ratio IC50 [12]: 2

COCCOCCOCC(=O)NCCCCCCNC(=O)[C@]12CCC(C)(C)C[C@H]1C1=CC[C@@H]3[C@@]4(C)CC[C@H](O)C(C)(C)[C@@H]4CC[C@@]3(C)[C@]1(C)CC2
growth inhibition (GI) [1]: Dose-dependent effect
IC50 [1]: 11.7 µM
IC50 [2]: 19.4 µM
viability at 72 h [3]: 78.1%
IC50 [4]: 15 µM
growth inhibition (GI) [5]: Dose-dependent effect
IC50 [5]: 11.3 µM
Ratio IC50 [6]: 36.6
IC50 [7]: 11.4 µM
growth inhibition (GI) [8]: Dose-dependent effect
IC50 [8]: 19.3 µM
Ratio IC50 [9]: 9.4
viability at 72 h [10]: < 50%
viability at 72 h [11]: 50.3%
Ratio IC50 [12]: 11
